Assay results from US20180282403A1, “AGENTS FOR REDUCING THE ACTIVITY OF GDF15” (GENAGON THERAPEUTICS AB, priority 2015, published 2018).

Legend:
Assay type in all cases: cell-based
CD14+ cells = assay: Cytokine secretion by LPS-stimulated CD14+ cells (Proseek assay); conditions: LPS stimulated CD14+ cells incubated with GDF15
Experimental: CD14+ cells where isolated and cultured in the presence or absence of GDF15 in a LPS stimulated culture.
Buffy coat cell suspension or heparinized blood samples were diluted with sterile, room temperature PBS. Peripheral blood samples are diluted 1:1, whereas buffy coats are diluted to a final volume of 120 ml (in a standard buffy coat this will result in slightly greater dilution than 1:1). The diluted cell suspension was layered onto Ficoll Paque PLUS. For one buffy 4×15 ml aliquots are used (30 ml of diluted cell suspension/tube). Cells were centrifuged at 400×g for 30 min at room temperature and transferred to a new 50 ml tube. Cells were washed once and resuspended in 20 ml PBS.
Mononuclear cell suspension was pelleted by centrifugation. Cells were resuspended in Stemcell buffer at a concentration of 10^8 cells/ml and transferred to a round bottom 14 ml tube. EasySep Positive Selection cocktail at was added at 100 μl/ml cells, mixed by gentle pipetting, and incubated at room temperature for 15 min. 50 μl EasySep Magnetic Nanoparticles per 1 ml cells were added and mixed, and incubated at room temperature for 10 min. Stemcell recommended medium was added to bring the cell suspension to a total volume of 5 ml and mixed by gently pipetting. The tube (without cap) was placed into the magnet and set aside for 5 min. After 5 minutes the supernatant was discarded. CD14+ labelled cells will remain inside the tube. The tube was removed from the magnet and add 5 ml Stemcell recommended medium was added and mixed by gently pipetting. The tube (without cap) was placed into the magnet and set aside for 5 min. The was step was repeated before the cells were resuspended in 5 ml complete RPMI medium. 50 μl of the CD14+ cell suspension was removed and counted to determine total cell number after dilution in Trypan blue solution and mounting on Fast Read 102 Counting Slides.
Adjust CD14+ cell suspension volume to a concentration of 0.833×10^6 cells/ml in complete RPMI medium. 300 μl of cell suspension is added to wells in a 48 well plate well (0.25×10^6 cells per well), and allowed to adhere for 90 min in an incubator at 37° C. Non-adherent cells were removed by removal of the supernatant after gently pipetting the medium. Cells were washed once with 300 μl pre-warmed complete RPMI medium and the medium aspirated off. 300 μl pre-warmed complete RPMI medium was added to each well and the cells were incubate overnight (20-24 h) in a cell incubator at 37° C.
A 17× stock solution of the desired GDF15 modulatory substances was diluted in complete RPMI. (20 μl of substance/well assayed). 20 μl of modulatory substance or medium/carrier (negative control) was added to each well and mixed by gentle pipetting. Cells were incubated for 30 min in a cell incubator at 37° C. A 17×GDF15 solution was prepared by diluting a 100 μg/ml stock solution to a concentration of 8.5 μg/ml (final concentration in culture 0.5 μg/ml) in complete RPMI. 20 μl of diluted GDF15 was added per well, and incubated overnight (18-20 h) in a cell incubator at 37° C.
A 18×LPS solution was prepared by diluting the LPS stock solution to a concentration of 18 ng/ml (final concentration in culture 1 ng/ml) in complete RPMI. 20 μl of LPS or medium (negative control) was added to each well and mixed by gentle pipetting. […]
Secreted proteins from cell cultures where quantified using multiplexed proximity extension assay, Proseek (Assarsson E et al PlosOne 2014) by Olink Proteomics AB (Uppsala Sweden). […]

QRFPR [1] = assay: In situ PLA detection of QRFPR at the cell surface in U2OS osteosarcoma cells; conditions: U2OS cells, GDF15 alone; FIG. 9E
From the text: A-D) In situ PLA detection of the Rab11-QRFPR complex following exposure of MCF7 cells to GDF15. A) +Ctrl peptide. B) +QRFPR extracellular N-terminal peptide. C-D) +QRFPR extracellular loop3 (domain 4) peptide. The level of the Rab11-QRFPR complex is reduced by the peptide from extracellular loop3 of QRFPR. E) in situ PLA detection of QRFPR in U2OS osteosarcoma cells.
We choose to use this assay as a way to investigate if the activity of GDF15 could be inhibited by various agents. […] GDF15-induced formation of RAB11/QRFPR endosomes is inhibited by QRFPR peptides (FIG. 9A-D). Equal amounts of a mastermix of GDF15 was aliquoted and pre-incubated in PBS with the various receptor fragment before addition to cells. Sequentially, the cells were treated with either PBS, GDF15 or GDF15/QRFPR-derived peptide mixes.

QRFPR [2] = biological target: T1, QRFPR (Homo sapiens, UniProt Q96P65); assay: In situ PLA detection of ACTRIIB-QRFPR proximity in MCF7 cells; conditions: serum-starved MCF7 cells, GDF15 20 minutes; FIG. 3A-B
T1 construct: endogenous in cells
T1 sequence (Q96P65 1-431): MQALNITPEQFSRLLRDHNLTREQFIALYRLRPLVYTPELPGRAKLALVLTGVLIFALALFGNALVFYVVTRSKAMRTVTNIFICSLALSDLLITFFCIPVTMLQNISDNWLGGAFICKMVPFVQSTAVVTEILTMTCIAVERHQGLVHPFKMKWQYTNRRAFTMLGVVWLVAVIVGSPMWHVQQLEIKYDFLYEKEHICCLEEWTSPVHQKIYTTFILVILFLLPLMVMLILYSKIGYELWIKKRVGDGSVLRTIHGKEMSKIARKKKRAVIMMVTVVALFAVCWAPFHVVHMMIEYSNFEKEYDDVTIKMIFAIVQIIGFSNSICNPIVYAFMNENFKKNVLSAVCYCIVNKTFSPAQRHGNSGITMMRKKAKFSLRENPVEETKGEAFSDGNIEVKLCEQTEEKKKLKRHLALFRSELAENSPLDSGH
Experimental: MCF7 cells were stimulated with GDF15 (GDF15 from isolated mammalian source or recombinant derived from E. coli purchased from Abcam and Biovision). An assay was developed for monitoring the activity of GDF15 and to investigate the dynamics of receptor(s) such as QRFPR modulation by the ligand.
Serum-starved MCF7 cells were treated with GDF15, and an in situ PLA detection assay was developed to detect the interaction between ACTRIIB and QRFPR using antibodies from two different species, thus allowing the use of Duolink secondary detection reagents. The presence of the QRFPR-ACTRIIB complex was detected in the absence of GDF15 (see FIG. 3A, indicated by arrows).

QRFPR [3] = biological target: T1, QRFPR; assay: QRFPR levels after prolonged GDF15 stimulation with or without proteasome inhibition; conditions: GDF15 18 hrs, absence of MG132; FIG. 6B
Experimental: This effect is not seen in cells which are treated with MG132 (FIG. 6D).

ACTRIIB-QRFPR in situ PLA signal (QRFPR [2]): reduced by GDF15 treatment
levels of QRFPR (QRFPR [3]): dramatically reduced the levels of QRFPR
Substance: GDF15: Growth and differentiation factor 15, from mammalian source or recombinant from E. coli (Abcam, Biovision)
LPS response secretion of IL12 (CD14+ cells): reduced
LPS response secretion of TNF (CD14+ cells): reduced
level of QRFPR at the cell surface (QRFPR [1]): reduced by GDF15
